From article PMC11666850, “Development and evaluation of deuterated [^18F]JHU94620 isotopologues for the non-invasive assessment of the cannabinoid type 2 receptor in brain” (EJNMMI Radiopharmacy and Chemistry, 2024)
Where two headings read alike, the source gives them in different places.

Legend:
in vivo = details: male, Wistar, rat, iv
Experimental: Female adult CD-1 mice (25–42 g body weight) were used for radiometabolite analysis of [^18F]JHU94620-d4 (n = 2, 33 and 34 MBq) and [^18F]JHU94620-d8 (n = 3, 26–33 MBq) at 30 min after intravenous tail vein injection of the radiotracer to allow for the comparison of radiometabolite analysis of [^18F]JHU94620 (Moldovan et al. [2016]). The mice were immobilized by short isoflurane narcosis for the injection of the radiotracer in a restrainer and awakened mice were kept in an isolated cage until euthanisation by cervical dislocation under isoflurane narcosis. Male Wistar rats (n = 12, 613–794 g) were used for radiometabolite analysis of [^18F]JHU94620-d8 at different time points (5, 15, 30 and 60 min p.i.) after intravenous tail vein injection of the radiotracer (37–74 MBq) for the correction of the input function in pharmacokinetic analysis. Rats were kept under isoflurane narcosis (gas mixture: 2.5% isoflurane and O2) on a warmed plate until euthanization by decapitation of deep narcotized animals. Plasma samples were obtained by centrifugation with 5500 g of blood samples for 2 min at 4 °C. Resected tissues brain and spleen were kept on ice and minced for 3 × 20 s with adding 0.5 to 1 mL of 0.9% NaCl using a Precellys lysing kit and Minilys homogenizer (Bertin Technologies SAS, Montigny-le-Bretonneux, France).
The samples were further processed for subsequent radio-chromatographic analyses. Two consecutive extractions were performed in duplicates for plasma and brain determinations. Plasma, brain and spleen samples were added to the four time the volume of an ice-cold MeOH/H2O mixture (9:1, v/v). […] The activities of supernatants and precipitates were measured in a γ-counter (1480 WIZARD, Perkin Elmer), and the extraction efficiencies were calculated as the ratio of radioactivity in the supernatant to the radioactivity in the original sample (supernatant + precipitate). The supernatants from both extractions were combined, concentrated at 70 °C under argon stream up to a remaining volume of 100 µL, and subsequently analysed by analytical radio-HPLC (method A or B).

hCB2R(D80N) [1] = biological target: T1, hCB2R(D80N) (Homo sapiens, UniProt P34972, D80N); assay: Homologous displacement autoradiography, brain cryosections of rats with hCB2R(D80N) overexpression; format: binding
CB2R = biological target: T2, CB2R (Rattus norvegicus, UniProt Q9QZN9); format: in vivo; details: male, Wistar, rat, in vivo
T2 construct: from tissue; host or cells: rat spleen: cryosections in vitro, and spleen of living Wistar rats in PET
T2 sequence (Q9QZN9 1-360): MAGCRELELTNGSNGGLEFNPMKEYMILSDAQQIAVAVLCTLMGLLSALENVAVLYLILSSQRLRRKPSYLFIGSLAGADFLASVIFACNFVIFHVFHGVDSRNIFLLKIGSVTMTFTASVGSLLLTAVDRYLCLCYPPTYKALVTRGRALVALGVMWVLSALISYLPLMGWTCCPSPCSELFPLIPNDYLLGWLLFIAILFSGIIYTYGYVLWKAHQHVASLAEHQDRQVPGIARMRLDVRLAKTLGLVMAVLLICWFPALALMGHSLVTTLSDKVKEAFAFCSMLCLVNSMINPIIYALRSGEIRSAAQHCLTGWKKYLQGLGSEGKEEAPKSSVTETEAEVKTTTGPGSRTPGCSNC
Experimental: The dynamic biodistribution of the radiotracer in the lower body of rats was assessed by small animal PET (Nanoscan, Mediso, Hungary) over 60 min with a subsequently T1-weighted MR. Anaesthetized (2% isoflurane, carrier gas mixture of 40% air and 60% O2) male Wistar rats (body weight: 205–308 g, age: 8–10 weeks, no gender-specific differences were taken into account) were kept during imaging on a heated animal bed to sustain body temperature and were pretreated with vehicle (DMSO:Kolliphore EL:0.9% saline, 1:2:7), JHU94620-d8 (1.5 mg kg^−1 bodyweight) or with GW405833 (5 mg kg^−1 bodyweight) 5 min prior tracer application ([^18F]JHU94620-d8: 7.7–28.2 MBq, 0.4 to 3.2 nmol kg^−1 bodyweight), whereby all injections were administered intravenously. For the evaluation of the hCB2R-specific binding of the radiotracer in the brain, female Wistar rats (n = 6, 253–269 g, age: 8 month) were used carrying stereotactically injected constructs of AAV2/7-CaMKII0.4-intron-hCB2R(D80N) in the right striatum and AAV2/7-CaMKII0.4-intron-3flag-eGFP in the control/contralateral striatum (Vandeputte et al. [2011]). 21–26 MBq corresponding to 0.2 to 2.0 nmol kg^−1 bodyweight radiotracer were injected, whereas in displacement studies 5 mg kg^−1 bodyweight GW405833 was administered 20 min after the radiotracer (each n = 3). The PET scans were performed six months after the stereotactic injections of the AAV2/7-constructs.
The acquisitions were performed in normal mode and a coincidence mode 1–5. For subsequent dynamic reconstructions list mode data were sorted into sinograms (12 × 10 s, 6 × 30 s, 5 × 60 s and 10 × 300 s). The frames were reconstructed by Ordered Subset Expectation Maximization applied to 3D (OSEM3D) sinograms corrected for decay and attenuation (4 iterations, 6 subsets and a voxel size of 0.4 mm^3) with the Nucline software v2.01 (Mediso, Budapest, Hungary). Analyses of reconstructed studies were performed with PMOD software (v4.205, PMOD Technologies LLC, Fällanden, Switzerland) and results are expressed in standardized uptake values (SUVs) or normalized to a reference region (SUVr).

hCB2R(D80N) [2] = biological target: T1, hCB2R(D80N)
[3] = female, Wistar, rat, in vivo, 60 min

T1 sequence (P34972 whole entry D80N): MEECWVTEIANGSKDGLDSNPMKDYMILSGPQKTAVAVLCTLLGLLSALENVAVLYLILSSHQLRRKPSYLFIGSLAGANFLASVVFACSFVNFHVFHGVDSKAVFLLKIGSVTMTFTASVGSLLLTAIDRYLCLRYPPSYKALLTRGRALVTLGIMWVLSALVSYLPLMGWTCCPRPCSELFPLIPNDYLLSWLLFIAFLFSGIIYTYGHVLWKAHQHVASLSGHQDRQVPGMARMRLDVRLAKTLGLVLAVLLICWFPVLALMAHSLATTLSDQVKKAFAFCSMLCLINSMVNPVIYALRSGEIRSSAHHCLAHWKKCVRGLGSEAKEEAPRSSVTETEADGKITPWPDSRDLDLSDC

[2H]C([2H])([18F])C([2H])([2H])C([2H])([2H])C([2H])([2H])n1c(C)c(C)s/c1=N\C(=O)C1C(C)(C)C1(C)C [[^18F]JHU94620-d8]
half-life (in vivo; metabolic half-life (t1/2) in brain): 53.8 min | half-life (in vivo; metabolic half-life (t1/2) in plasma): 7.6 min | half-life (in vivo; metabolic half-life (t1/2) in spleen): 37.3 min | Kd (hCB2R(D80N) [1]): 41 nM | SUVr(spleen-to-blood) at late time points (CB2R): about 1.5 | spleen SUVmean at late time points (CB2R): about 0.5 SUVmean | BPND in the hCB2R(D80N) region (hCB2R(D80N) [2]; SRTM, cerebellar region as reference): 26 | reduction of AUC20-60min when normalized to the cerebellum (hCB2R(D80N) [2]; after injection of GW405833, compared to the control group): 61% | TAC peak, potential reference regions (contralateral and cerebellum) (hCB2R(D80N) [2]; female, Wistar, rat, in vivo): about 3 SUVmean | VT in the brain region bearing the hCB2R(D80N) overexpression (hCB2R(D80N) [2]; female, Wistar, rat, in vivo): 320 ± 135 mL ccm^−1 | VT in the other investigated brain regions (hCB2R(D80N) [2]; female, Wistar, rat, in vivo): 5.9-13.8 mL ccm^−1 | SUVmean in the cerebellar region at 60 min p.i. (hCB2R(D80N) [2]; [3]): 0.16 ± 0.03 SUVmean | SUVmean in the contralateral region at 60 min p.i. (hCB2R(D80N) [2]; [3]): 0.8 ± 0.3 SUVmean | AUC20-60min (CI95%), hCB2R D80N-to-Cerebellum (hCB2R(D80N) [2]; human, in vivo): 1128 (1058 to 1198) SUVr ∙ min | AUC20-60min (CI95%), hCB2R D80N-to-Contralateral (hCB2R(D80N) [2]; human, in vivo): 291 (226 to 355) SUVr ∙ min | AUC, Cerebellum (hCB2R(D80N) [2]; human, in vivo): 30 ± 4 SUV ∙ min | AUC, Contralateral (hCB2R(D80N) [2]; human, in vivo): 74 ± 16 SUV ∙ min | AUC, hCB2R(D80N) (hCB2R(D80N) [2]; human, in vivo): 412 ± 90 SUV ∙ min | AUC20-60min (CI95%), hCB2R D80N-to-Cerebellum (hCB2R(D80N) [2]; human, in vivo, iv, 5 mg/kg): 435 (367 to 502) SUVr ∙ min | AUC20-60min (CI95%), hCB2R D80N-to-Contralateral (hCB2R(D80N) [2]; human, in vivo, iv, 5 mg/kg): 272 (233 to 311) SUVr ∙ min
